Values of other authors as cited in patent publication EP1151755B1, “Pharmaceutical compositions comprising cyclosporin as active ingredient” (Panacea Biotec Limited, priority 2000, dated 2001).

Tested on: normal epithelial tissue and Peyer's patch tissue of guinea pigs
Conditions: in vitro; compared to the commercially available drinking solution

Choleic acid
factor by which absorption of Cyclosporine was raised: 5-6
